Laboratory results: patent publication US11168073B2, “3,3-difluoroallylamines or salts thereof and pharmaceutical compositions comprising the same” (YUHAN CORPORATION, priority 2018, dated 2021)
Where a name gives a salt, the structure may show the parent alone.

What was measured:
Type in all cases: biochemical
[1] = target: T1, recombinant human MAO-B (monoamine oxidase-B) (Homo sapiens, UniProt P27338); test: Activity evaluation on recombinant human MAO-B (Amplex Red/HRP-coupled assay, 1 mM benzylamine substrate); conditions: 1 mM benzylamine, read-out: Inhibitory Activity (IC50, nM) MAO-B
T1 construct: purchased Sigma-Aldrich
T1 sequence (P27338 1-520): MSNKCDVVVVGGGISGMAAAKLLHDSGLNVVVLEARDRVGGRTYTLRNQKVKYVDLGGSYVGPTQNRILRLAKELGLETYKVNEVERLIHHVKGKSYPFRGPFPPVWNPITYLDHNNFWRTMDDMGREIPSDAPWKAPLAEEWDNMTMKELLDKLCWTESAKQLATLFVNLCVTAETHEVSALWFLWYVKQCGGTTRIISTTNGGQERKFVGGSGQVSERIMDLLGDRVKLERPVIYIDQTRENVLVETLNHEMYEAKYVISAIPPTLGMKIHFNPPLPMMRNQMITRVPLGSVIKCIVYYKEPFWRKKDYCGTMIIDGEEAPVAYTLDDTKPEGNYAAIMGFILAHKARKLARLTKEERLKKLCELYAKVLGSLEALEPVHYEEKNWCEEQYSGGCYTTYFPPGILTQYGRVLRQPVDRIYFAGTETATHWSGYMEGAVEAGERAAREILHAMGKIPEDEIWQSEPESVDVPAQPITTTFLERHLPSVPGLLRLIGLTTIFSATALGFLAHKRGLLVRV
How it was run: (§1)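 Compounds preincubated 30 min at 37 °C with enzyme in 50 mM sodium phosphate pH 7.4 (final DMSO <1%, 8-point 1:3 dilutions); reaction started with 200 uM Amplex Red, 1 U/mL HRP and substrate (MAO-A 0.5 mM tyramine, MAO-B 1 mM benzylamine, DAO 1 mM putrescine). Resorufin fluorescence (ex 544/em 590 nm) followed over 1-2 h; IC50 from four-parameter logistic fit.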

[2] = target: T2, recombinant human DAO (diamine oxidase) (Homo sapiens, UniProt P19801); test: Activity evaluation on recombinant human DAO (Amplex Red/HRP-coupled assay, 1 mM putrescine substrate); conditions: 1 mM putrescine, read-out: Inhibitory Activity (IC50, nM) DAO
T2 construct: purchased R&D systems
T2 sequence (P19801 20-751): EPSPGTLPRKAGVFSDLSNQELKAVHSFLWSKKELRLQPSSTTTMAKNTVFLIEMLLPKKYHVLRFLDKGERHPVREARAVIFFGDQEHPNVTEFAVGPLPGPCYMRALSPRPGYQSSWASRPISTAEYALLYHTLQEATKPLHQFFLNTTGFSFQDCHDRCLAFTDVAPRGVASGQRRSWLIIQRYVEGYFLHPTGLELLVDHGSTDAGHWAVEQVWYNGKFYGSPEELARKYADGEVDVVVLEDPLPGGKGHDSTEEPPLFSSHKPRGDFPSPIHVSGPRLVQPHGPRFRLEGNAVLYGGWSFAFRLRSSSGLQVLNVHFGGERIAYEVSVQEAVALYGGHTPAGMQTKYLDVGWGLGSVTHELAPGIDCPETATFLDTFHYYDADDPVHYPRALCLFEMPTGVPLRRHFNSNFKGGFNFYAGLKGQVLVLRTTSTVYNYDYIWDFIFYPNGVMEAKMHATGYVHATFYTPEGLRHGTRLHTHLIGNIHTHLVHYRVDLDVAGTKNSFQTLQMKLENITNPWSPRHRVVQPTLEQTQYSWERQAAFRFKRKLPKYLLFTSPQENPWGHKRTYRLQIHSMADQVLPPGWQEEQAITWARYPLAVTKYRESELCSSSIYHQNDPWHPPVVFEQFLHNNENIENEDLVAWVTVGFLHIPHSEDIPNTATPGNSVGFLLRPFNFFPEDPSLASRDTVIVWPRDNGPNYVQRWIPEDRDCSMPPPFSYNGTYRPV
How it was run: as §1

[3] = target: T3, recombinant human MAO-A (monoamine oxidase-A) (Homo sapiens, UniProt P21397); test: Activity evaluation on recombinant human MAO-A (Amplex Red/HRP-coupled assay, 0.5 mM tyramine substrate); conditions: 0.5 mM tyramine, read-out: Inhibitory Activity (IC50, nM) MAO-A
T3 construct: purchased Sigma-Aldrich
T3 sequence (P21397 1-527): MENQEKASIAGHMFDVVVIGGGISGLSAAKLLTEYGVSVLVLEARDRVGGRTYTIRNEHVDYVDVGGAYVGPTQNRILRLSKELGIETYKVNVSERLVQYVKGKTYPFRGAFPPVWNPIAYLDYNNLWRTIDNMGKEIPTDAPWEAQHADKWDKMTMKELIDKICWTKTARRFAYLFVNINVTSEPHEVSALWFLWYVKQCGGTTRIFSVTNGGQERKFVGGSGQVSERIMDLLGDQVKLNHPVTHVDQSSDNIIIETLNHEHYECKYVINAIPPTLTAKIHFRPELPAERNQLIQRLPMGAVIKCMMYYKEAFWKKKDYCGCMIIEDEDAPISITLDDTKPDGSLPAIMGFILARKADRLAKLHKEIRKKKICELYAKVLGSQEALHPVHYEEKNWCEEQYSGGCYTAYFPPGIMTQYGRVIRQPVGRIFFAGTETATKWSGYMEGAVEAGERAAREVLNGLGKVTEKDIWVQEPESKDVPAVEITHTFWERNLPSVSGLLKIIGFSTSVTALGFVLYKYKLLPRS
How it was run: as §1

recombinant human VAP-1 = target: T4, recombinant human VAP-1 (Homo sapiens, UniProt Q16853); test: Activity evaluation on recombinant human VAP-1 (Amplex Red/HRP-coupled hydrogen peroxide assay, benzylamine substrate); conditions: recombinant human VAP-1; 30 min preincubation at 37° C.; 1 mM benzylamine; read-out: Inhibitory Activity (IC50, nM) human VAP-1
T4 construct: purchased R&D systems
T4 sequence (Q16853 1-763): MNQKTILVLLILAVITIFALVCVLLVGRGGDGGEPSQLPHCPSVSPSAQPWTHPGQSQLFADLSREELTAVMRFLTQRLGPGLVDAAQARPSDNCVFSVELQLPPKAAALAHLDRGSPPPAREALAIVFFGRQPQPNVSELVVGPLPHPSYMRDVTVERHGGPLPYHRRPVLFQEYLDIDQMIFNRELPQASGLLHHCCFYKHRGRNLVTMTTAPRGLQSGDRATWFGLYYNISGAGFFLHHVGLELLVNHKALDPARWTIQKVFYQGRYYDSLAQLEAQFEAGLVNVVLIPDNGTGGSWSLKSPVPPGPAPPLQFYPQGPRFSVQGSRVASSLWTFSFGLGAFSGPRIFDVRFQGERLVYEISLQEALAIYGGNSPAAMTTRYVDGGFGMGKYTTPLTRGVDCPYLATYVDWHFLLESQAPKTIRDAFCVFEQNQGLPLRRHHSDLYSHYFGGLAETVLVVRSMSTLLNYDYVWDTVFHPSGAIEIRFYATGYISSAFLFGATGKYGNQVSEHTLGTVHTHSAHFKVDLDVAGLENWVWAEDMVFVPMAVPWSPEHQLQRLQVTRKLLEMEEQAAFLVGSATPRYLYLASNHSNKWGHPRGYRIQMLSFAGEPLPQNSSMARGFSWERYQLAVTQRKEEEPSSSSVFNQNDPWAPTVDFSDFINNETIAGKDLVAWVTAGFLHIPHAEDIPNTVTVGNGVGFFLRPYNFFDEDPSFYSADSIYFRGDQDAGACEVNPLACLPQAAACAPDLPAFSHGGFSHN
How it was run: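 Recombinant human VAP-1 in 50 mM sodium phosphate pH 7.4 preincubated 30 min at 37 °C with compound (8-point 1:3 series, <1% DMSO), then 1 mM benzylamine, 200 uM Amplex Red, 1 U/mL HRP added. H2O2-derived resorufin fluorescence (ex 544/em 590) followed 1–2 h; IC50 from four-parameter fit of rate inhibition.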

Compound	IC50 [1] [nM]	IC50 [2] [nM]	IC50 [3] [nM]	IC50 (recombinant human VAP-1) [nM]
NCC(Cn1ncn(Cc2ccc(-c3ccc(C(=O)N4CCOCC4)cc3)s2)c1=O)=C(F)F [Example 109, 2-[2-(aminomethyl)-3,3-difluoro-allyl]-4-[[5-(4-morpholine-4-carbonyl)phenyl]-2-thienyl]methyl]-1,2,4-triazol-3-one trifluoroacetate]	> 100000	84000	> 100000	1.4
NCC(Cn1ncn(Cc2ccc(-c3cccc(-c4cc[nH]n4)c3)s2)c1=O)=C(F)F [Example 110, 2-[2-(aminomethyl)-3,3-difluoro-allyl]-4-[[5-[3-(1H-pyrazol-3-yl)phenyl]-2-thienyl]methyl]-1,2,4-triazol-3-one Trifluoroacetate]	8700	> 100000	> 10000	1.3
NCC(Cn1ncn(Cc2ccc(-c3ccc(N4CCNCC4)nc3)s2)c1=O)=C(F)F [Example 114, 2-[2-(aminomethyl)-3,3-difluoro-allyl]-4-[[5-(6-piperazin-1-yl-3-pyridyl)-2-thienyl]methyl]-1,2,4-triazol-3-one Ditrifluoroacetate]	> 100000	970	> 100000	4.9
COCCNc1ncc(-c2ccc(Cn3cnn(CC(CN)=C(F)F)c3=O)s2)cn1 [Example 118, 2-[2-(aminomethyl)-3,3-difluoro-allyl]-4-[[5-[2-(2-methoxyethylamino)pyrimidin-5-yl]-2-thienyl]methyl]-1,2,4-triazol-3-one Trifluoroacetate]	> 100000	40000	> 100000	3.5
CCn1cc(-c2ccc(Cn3cnn(CC(CN)=C(F)F)c3=O)s2)cn1 [Example 119, 2-[2-(aminomethyl)-3,3-difluoro-allyl]-4-[[5-(1-ethylpyrazol-4-yl)-2-thienyl]methyl]-1,2,4-triazol-3-one Trifluoroacetate]	30000	> 10000	> 100000	0.5
Cn1c(-c2ccc(Cn3cnn(CC(CN)=C(F)F)c3=O)s2)cnc1Cl [Example 120, 2-[2-(aminomethyl)-3,3-difluoro-allyl]-4-[[5-(2-chloro-3-methyl-imidazol-4-yl)-2-thienyl]methyl]-1,2,4-triazol-3-one Trifluoroacetate]	> 100000	> 100000	> 100000	6

Other lines, results leading:

IC50 [1] [nM]	IC50 [2] [nM]	IC50 [3] [nM]	IC50 (recombinant human VAP-1) [nM]	Compound
9400	7200	> 100000	0.4	NCC(Cn1ncn(Cc2ccc(-c3ccc(C(F)(F)F)nc3)s2)c1=O)=C(F)F [Example 111, 2-[2-(aminomethyl)-3,3-difluoro-allyl]-4-[[5-[6-(trifluoromethyl)-3-pyridyl]-2-thienyl]methyl]-1,2,4-triazol-3-one Trifluoroacetate]
26000	> 100000	> 100000	0.2	CN(C)c1ccc(-c2ccc(Cn3cnn(CC(CN)=C(F)F)c3=O)s2)cn1 [Example 112, 2-[2-(aminomethyl)-3,3-difluoro-allyl]-4-[[5-[6-(dimethylamino)-3-pyridyl]-2-thienyl]methyl]-1,2,4-triazol-3-one Trifluoroacetate]
2700	19000	> 100000	0.6	COc1ccc(-c2ccc(Cn3cnn(CC(CN)=C(F)F)c3=O)s2)cn1 [Example 113, 2-[2-(aminomethyl)-3,3-difluoro-allyl]-4-[[5-(6-methoxy-3-pyridyl)-2-thienyl]methyl]-1,2,4-triazol-3-one Trifluoroacetate]
> 10000	> 100000	> 100000	1.4	NCC(Cn1ncn(Cc2ccc(-c3cnc(N)nc3)s2)c1=O)=C(F)F [Example 116, 2-[2-(aminomethyl)-3,3-difluoro-allyl]-4-[[5-(2-aminopyrimidin-5-yl)-2-thienyl]methyl]-1,2,4-triazol-3-one Trifluoroacetate]
> 100000	7100	> 100000	1.1	CCOc1ncc(-c2ccc(Cn3cnn(CC(CN)=C(F)F)c3=O)s2)cn1 [Example 117, 2-[2-(aminomethyl)-3,3-difluoro-allyl]-4-[[5-(2-ethoxypyrimidin-5-yl)-2-thienyl]methyl]-1,2,4-triazol-3-one Trifluoroacetate]
40000	> 10000	> 100000	0.9	Cn1cc(-c2ccc(Cn3cnn(CC(CN)=C(F)F)c3=O)s2)ccc1=O [Example 121, 5-[5-[[1-[2-(aminomethyl)-3,3-difluoro-allyl]-5-oxo-1,2,4-triazol-4-yl]methyl]-2-thienyl]-1-methyl-pyridin-2-one Trifluoroacetate]
25000	54000	> 100000	0.4	CCn1cc(-c2ccc(Cn3cnn(CC(CN)=C(F)F)c3=O)s2)ccc1=O [Example 122, 5-[5-[[1-[2-(aminomethyl)-3,3-difluoro-allyl]-5-oxo-1,2,4-triazol-4-yl]methyl]-2-thienyl]-1-ethyl-pyridin-2-one Trifluoroacetate]
